Assay [1] has as its target Neuronal acetylcholine receptor subunit alpha-7 (Rattus norvegicus, UniProt Q05941). As to the kind of experiment: Binding affinity towards Nicotinic acetylcholine receptor alpha-7 using [3H]-MLA as radioligand.
Assay [2] has as its target Neuronal acetylcholine receptor; alpha4/beta2 (Rattus norvegicus, UniProt P09483+P12390). As to the kind of experiment: Binding affinity towards Nicotinic acetylcholine receptor alpha4-beta2 using [3H]nicotine as radioligand. In kind it is protein-complex assay.
Assay [3] addresses Neuronal acetylcholine receptor alpha3/beta4 (Homo sapiens). As to the kind of experiment: Binding affinity towards alpha3-beta4 subtype of neuronal nicotinic acetylcholine receptor (nAChR) using [3H]epibatidine as radioligand.

Where only a bound is given, the exact number is not on record here.

Neuronal acetylcholine receptor subunit alpha-7, sequence (Q05941 whole entry): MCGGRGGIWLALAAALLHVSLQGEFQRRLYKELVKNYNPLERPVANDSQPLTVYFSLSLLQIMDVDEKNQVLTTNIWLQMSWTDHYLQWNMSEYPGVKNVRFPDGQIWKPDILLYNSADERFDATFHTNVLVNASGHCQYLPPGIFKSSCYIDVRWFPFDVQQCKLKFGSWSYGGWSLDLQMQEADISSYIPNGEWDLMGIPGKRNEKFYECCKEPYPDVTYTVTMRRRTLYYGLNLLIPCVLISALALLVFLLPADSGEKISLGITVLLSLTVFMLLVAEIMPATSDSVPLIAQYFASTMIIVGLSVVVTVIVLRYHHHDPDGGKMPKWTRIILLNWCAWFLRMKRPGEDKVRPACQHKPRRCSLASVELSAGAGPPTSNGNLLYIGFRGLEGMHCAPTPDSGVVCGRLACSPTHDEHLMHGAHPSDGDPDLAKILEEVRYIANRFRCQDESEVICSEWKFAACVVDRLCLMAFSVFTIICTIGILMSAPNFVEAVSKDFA
Neuronal acetylcholine receptor; alpha4/beta2, sequence (P09483 whole entry): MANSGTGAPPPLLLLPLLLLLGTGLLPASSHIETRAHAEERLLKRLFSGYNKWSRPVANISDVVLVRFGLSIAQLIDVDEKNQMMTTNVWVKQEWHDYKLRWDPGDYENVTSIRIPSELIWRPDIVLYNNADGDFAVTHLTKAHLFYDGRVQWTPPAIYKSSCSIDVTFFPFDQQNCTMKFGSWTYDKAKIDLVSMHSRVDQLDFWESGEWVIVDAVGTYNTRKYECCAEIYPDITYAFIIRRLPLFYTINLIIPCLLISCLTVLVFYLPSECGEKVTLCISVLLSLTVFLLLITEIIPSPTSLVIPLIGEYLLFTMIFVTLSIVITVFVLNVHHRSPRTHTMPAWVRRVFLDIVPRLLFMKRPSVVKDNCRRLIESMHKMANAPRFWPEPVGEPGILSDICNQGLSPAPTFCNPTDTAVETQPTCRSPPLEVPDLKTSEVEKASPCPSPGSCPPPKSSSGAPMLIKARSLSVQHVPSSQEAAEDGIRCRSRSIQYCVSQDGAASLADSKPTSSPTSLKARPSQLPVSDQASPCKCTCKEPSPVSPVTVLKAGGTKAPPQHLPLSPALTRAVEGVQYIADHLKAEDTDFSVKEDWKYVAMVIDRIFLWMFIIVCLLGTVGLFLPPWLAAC
Neuronal acetylcholine receptor; alpha4/beta2, sequence (P12390 whole entry): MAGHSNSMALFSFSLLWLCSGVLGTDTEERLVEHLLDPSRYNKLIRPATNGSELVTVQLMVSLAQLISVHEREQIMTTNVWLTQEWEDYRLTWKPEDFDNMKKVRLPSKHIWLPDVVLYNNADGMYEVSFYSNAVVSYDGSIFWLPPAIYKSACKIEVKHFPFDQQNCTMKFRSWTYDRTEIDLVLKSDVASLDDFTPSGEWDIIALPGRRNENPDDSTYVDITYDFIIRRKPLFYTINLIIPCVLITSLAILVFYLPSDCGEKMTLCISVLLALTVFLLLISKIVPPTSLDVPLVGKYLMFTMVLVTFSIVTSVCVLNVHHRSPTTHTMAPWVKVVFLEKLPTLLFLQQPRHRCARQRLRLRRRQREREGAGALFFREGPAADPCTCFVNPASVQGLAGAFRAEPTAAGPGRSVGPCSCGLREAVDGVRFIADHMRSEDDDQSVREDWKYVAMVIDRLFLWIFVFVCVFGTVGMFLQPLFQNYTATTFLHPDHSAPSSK

What is called Ki is the equilibrium dissociation constant of an inhibitor or competing ligand from its target. With `C1=C(c2cncc(-c3ccccc3)c2)C2CCC(CC1)N2` (centres undefined), the Ki in assay [1] worked out at 16000 nM; in assay [2], 4.8 nM; in assay [3], 468 nM.
Regarding `C1=C(c2cnccc2-c2ccccc2)C2CCC(CC1)N2` (centres undefined), the values for the Ki in assay [1], in assay [2] and in assay [3] were 927 nM, 234 nM and 1990 nM, respectively.
Taken in the same sequence, the figures for `C1=C(c2cccnc2-c2ccccc2)C2CCC(CC1)N2` (centres undefined) were greater than 50000 nM, greater than 50000 nM and greater than 50000 nM.
In the case of `C1=C(c2cccnc2)C2CCC(CC1)N2` (centres undefined), the Ki was 89 nM in assay [1] and 0.43 nM in assay [2].
In assay [1], `Clc1ccc(C2=CCC[C@@H]3CC[C@H]2N3)cn1` registered an inhibition constant (Ki) of 2760 nM.
Regarding `C1=C(c2ccc(-c3ccccc3)nc2)C2CCC(CC1)N2` (centres undefined), the Ki in assay [1] amounted to 1310 nM; in assay [2] it was 21.4 nM.
